# Assay results reported in patent publication US4753953A, “Pyridonecarboxylic acid derivatives and antibacterial pharmaceutical compositions thereof” (priority 1985, dated 1988).
# Read-outs that look alike come from different tables or passages of the source.
# Tests used:
# [1] = test system: Staphylococcus aureus 209 P; experiment: MIC, in vitro antibacterial activity (standard strains); assay type: cell-based; conditions: Staphylococcus aureus, 209P; 10^6 cells/ml; Gram +; read-out: MIC
# S. aureus Smith = experiment: as above; assay type: cell-based, Staphylococcus aureus; conditions: Staphylococcus aureus; 10^6 cells/ml; Gram +; read-out: MIC
# [2] = test system: S. aureus IID 670 (Terajima); experiment: as above; assay type: cell-based, Staphylococcus aureus; conditions: Staphylococcus aureus, IID670; 10^6 cells/ml; Gram +; read-out: MIC
# S. pyogenes IID 692 = experiment: as above; assay type: cell-based, Streptococcus pyogenes; conditions: Streptococcus pyogenes, IID692; 10^6 cells/ml; Gram +; read-out: MIC
# S. pneumoniae IID 552 = experiment: as above; assay type: cell-based; conditions: Streptococcus pneumoniae, IID552; 10^6 cells/ml; Gram +; read-out: MIC
# E. coli ATCC 10536 = experiment: as above; assay type: cell-based, Escherichia coli; conditions: Escherichia coli, ATCC10536; 10^6 cells/ml; Gram -; read-out: MIC
# E. coli ML 4707 = experiment: as above; assay type: cell-based, Escherichia coli; conditions: Escherichia coli
# [3] = test system: Proteus vulgaris IFO 3167; experiment: as above; assay type: cell-based; conditions: Proteus vulgaris, IFO3167; 10^6 cells/ml; Gram -; read-out: MIC
# [4] = test system: Klebsiella pneumoniae KY(GN)6445; experiment: as above; assay type: cell-based; conditions: Klebsiella pneumoniae; 10^6 cells/ml; Gram -; read-out: MIC
# [5] = test system: Enterobacter cloacae IID 977; experiment: as above; assay type: cell-based; conditions: Enterobacter cloacae, IID977; 10^6 cells/ml; Gram -; read-out: MIC
# Shigella sonnei IID 969 = experiment: as above; assay type: cell-based; conditions: Shigella sonnei, IID969; 10^6 cells/ml; Gram -; read-out: MIC
# Protocol: Minimal inhibitory concentrations (MICs) were determined in accordance with the method recommended by Japan Society of Chemotherapy.
# [6] = test system: Salmonella enteritidis IID 604; experiment: as above; assay type: cell-based; conditions: Salmonella enterica; 10^6 cells/ml; Gram -; read-out: MIC
# P. aeruginosa IID 1210 = experiment: as above; assay type: cell-based, Pseudomonas aeruginosa; conditions: Pseudomonas aeruginosa, IID1210; 10^6 cells/ml; Gram -; read-out: MIC
# P. maltophilia GIFU 2491 = experiment: as above; assay type: cell-based; conditions: Stenotrophomonas maltophilia, GIFU2491; 10^6 cells/ml; Gram -; read-out: MIC
# [7] = test system: Yersinia enterocolitica IID 981; experiment: as above; assay type: cell-based; conditions: Yersinia enterocolitica, IID981; 10^6 cells/ml; Gram -; read-out: MIC
# [8] = test system: Acinetobacter anitratus IID 876; experiment: as above; assay type: cell-based; conditions: Acinetobacter calcoaceticus, IID876; 10^6 cells/ml; Gram -; read-out: MIC
# [9] = test system: Alcaligenes faecalis 0114002; experiment: as above; assay type: cell-based; conditions: Alcaligenes faecalis, 0114002; 10^6 cells/ml; Gram -; read-out: MIC
# [10] = test system: Bacteroides fragilis GM 7000; experiment: as above; assay type: cell-based; conditions: Bacteroides fragilis, GM7000; 10^6 cells/ml; Gram -; read-out: MIC
# B. fragilis 0558 = experiment: as above; assay type: cell-based, Bacteroides fragilis; conditions: Bacteroides fragilis, 0558; 10^6 cells/ml; Gram -; read-out: MIC
# B. fragilis 25285 = experiment: as above; assay type: cell-based, Bacteroides fragilis; conditions: Bacteroides fragilis, 25285; 10^6 cells/ml; Gram -; read-out: MIC
# B. distasonis 8503 = experiment: as above; assay type: cell-based; conditions: Parabacteroides distasonis, 8503; 10^6 cells/ml; Gram -; read-out: MIC
# [11] = test system: B. thetaiotaomicron (0661); experiment: as above; assay type: cell-based; conditions: Bacteroides thetaiotaomicron; 10^6 cells/ml; Gram -; read-out: MIC
# B. vulgatus KYA 29327 = experiment: as above; assay type: cell-based; conditions: Phocaeicola vulgatus, KYA29327; 10^6 cells/ml; Gram -; read-out: MIC
# [12] = test system: Fusobacterium mortiferum 4249; experiment: as above; assay type: cell-based; conditions: Fusobacterium mortiferum, 4249; 10^6 cells/ml; Gram -; read-out: MIC
# F. necrophorum S-45 = experiment: as above; assay type: cell-based; conditions: Fusobacterium necrophorum, S45; 10^6 cells/ml; Gram -; read-out: MIC
# [13] = test system: Eubacterium lentum GAI 5242; experiment: as above; assay type: cell-based; conditions: Eggerthella lenta, GAI5242; 10^6 cells/ml; Gram +; read-out: MIC
# [14] = test system: Peptococcus magnus KY 017; experiment: as above; assay type: cell-based; conditions: Finegoldia magna, KY017; 10^6 cells/ml; Gram +; read-out: MIC
# C. perfringens KYA 13123 = experiment: microbe, parasite or virus in culture; assay type: cell-based; conditions: Clostridium perfringens, KYA13123
# C. ramosum = experiment: MIC, in vitro antibacterial activity (standard strains); assay type: cell-based; conditions: Thomasclavelia ramosa; 10^6 cells/ml; Gram +; read-out: MIC
# Pst. micros UPI 5464-1 = experiment: as above; assay type: cell-based; conditions: Parvimonas micra, UPI54641; 10^6 cells/ml; Gram +; read-out: MIC
# [15] = test system: Veillonella parvula KYA 10790; experiment: as above; assay type: cell-based; conditions: Veillonella parvula, KYA10790; 10^6 cells/ml; Gram -; read-out: MIC
# P. cepacia GIFU 518 = experiment: as above; assay type: cell-based; conditions: Burkholderia cepacia, GIFU518; 10^6 cells/ml; Gram -; read-out: MIC
# [16] = ML4707, 10^6 cells/ml, Gram -, Table 1, read-out: MIC
Structure (SMILES),MIC [1] [µg/mL],MIC (S. aureus Smith) [µg/mL],MIC [2] [µg/mL],MIC (E. coli ATCC 10536) [µg/mL],MIC [3] [µg/mL],MIC [4] [µg/mL],MIC [5] [µg/mL],MIC (Shigella sonnei IID 969) [µg/mL],MIC [6] [µg/mL],MIC (P. aeruginosa IID 1210) [µg/mL],MIC (P. maltophilia GIFU 2491) [µg/mL],MIC [7] [µg/mL],MIC [8] [µg/mL],MIC [9] [µg/mL],MIC [10] [µg/mL],MIC (B. fragilis 0558) [µg/mL],MIC (B. fragilis 25285) [µg/mL],MIC (B. distasonis 8503) [µg/mL],MIC [11] [µg/mL],MIC (B. vulgatus KYA 29327) [µg/mL],further results
"C[C@@H]1CN(c2c(F)cc3c(=O)c(C(=O)O)cn(C4CC4)c3c2Br)C[C@H]1N (relative stereo) [Example 32, 7-(trans-3-Amino-4-methyl-1-pyrrolidinyl)-8-bromo-1-cyclopropyl-6-fluoro-1,4-dihydro-4-oxo-3-quinolinecarboxylic acid]",0.025,0.025,0.05,0.0125,0.0125,0.025,0.05,0.0063,0.05,0.78,0.05,0.025,0.025,0.1,0.1,0.05,0.1,0.2,0.2,0.1,MIC (S. pyogenes IID 692): 0.2 µg/mL; MIC (S. pneumoniae IID 552): 0.1 µg/mL; MIC (E. coli ML 4707; [16]): 0.0125 µg/mL; MIC [12]: 0.2 µg/mL; MIC (F. necrophorum S-45): 0.1 µg/mL; MIC [13]: 0.1 µg/mL; MIC [14]: 0.05 µg/mL; MIC (C. perfringens KYA 13123): 0.2 µg/mL; MIC (C. ramosum): 0.78 µg/mL; MIC (Pst. micros UPI 5464-1): 0.1 µg/mL; MIC [15]: 0.1 µg/mL
"C[C@H]1CN(c2cc3c(cc2F)c(=O)c(C(=O)O)cn3C2CC2)C[C@H]1N (relative stereo) [Example 33, 7-(cis-3-Amino-4-methyl-1-pyrrolidinyl)-1-cyclopropyl-6-fluoro-1,4-dihydro-4-oxo-3-quinolinecarboxylic acid]",0.05,0.1,0.1,0.05,0.05,0.05,0.05,0.05,0.05,1.56,0.39,0.05,0.1,0.2,1.56,1.56,1.56,6.25,6.25,6.25,MIC (S. pyogenes IID 692): 0.39 µg/mL; MIC (S. pneumoniae IID 552): 0.39 µg/mL; MIC (E. coli ML 4707; [16]): 0.05 µg/mL; MIC [12]: 1.56 µg/mL; MIC (F. necrophorum S-45): 1.56 µg/mL; MIC [13]: 0.78 µg/mL; MIC [14]: 0.39 µg/mL; MIC (C. perfringens KYA 13123): 0.78 µg/mL; MIC (C. ramosum): 6.25 µg/mL; MIC (Pst. micros UPI 5464-1): 0.39 µg/mL; MIC [15]: 0.39 µg/mL
"CC1CN(c2c(F)cc3c(=O)c(C(=O)O)cn(C4CC4)c3c2F)CC1N.Cl (stereo not drawn) [Example 11, 7-(3-Amino-4-methyl-1-pyrrolidinyl)-1-cyclopropyl-6,8-difluoro-1,4-dihydro-4-oxo-3-quinolinecarboxylic acid hydrochloride]",0.05,0.05,0.1,0.025,0.025,0.025,0.05,0.025,0.05,0.39,0.1,0.05,0.05,0.2,0.78,0.39,0.39,0.78,0.78,0.39,"MIC (E. coli ML 4707; ML4707): 0.0125 µg/mL; MIC (E. coli ML 4707; ML4707, Table 2, strain of the mouse infection, read-out: MIC): 0.025 µg/mL; MIC (P. cepacia GIFU 518): 0.39 µg/mL; MIC [12]: 0.39 µg/mL; MIC (F. necrophorum S-45): 0.39 µg/mL; MIC [13]: 0.39 µg/mL; MIC [14]: 0.2 µg/mL; MIC (C. perfringens KYA 13123): 0.39 µg/mL; MIC (C. ramosum): 1.56 µg/mL; MIC (Pst. micros UPI 5464-1): 0.39 µg/mL; MIC [15]: 0.39 µg/mL"
